Non-standard residues stand in square brackets, D forms with d. Residues, ends and D or L forms follow the SMILES beside them.
Tests used:
[1] = tested on: rats; assay: rat-tail flick method of D'Amour and Smith (analgesic activity); type: in vivo; conditions: single dose
Description: In this procedure, a single intravenous dose of from 0.5 to 20 mg/kg., will produce analgesia in the rat. Preferably, a dose of from 1 to 10 mg/kg. is employed. The exact dose to be employed will vary depending on the particular compound employed and the degree of analgesia desired. The determination of the precise dose to produce the desired effect will be readily ascertained by those skilled in the art. With representative compound H-Arg-Tyr-D-Ala-Gly-Phe-D-Leu-NH2, the following results were obtained: […]

[2] = administered intracerebroventricularly; cited from earlier work
[3] = peripheral administration, for example intravenous; cited from earlier work
[4] = tested on: opiate receptor; conditions: brain homogenates; cited from earlier work
[5] = tested on: mouse vas deferens; conditions: cited from earlier work
[6] = tested on: guinea pig ileum; conditions: cited from earlier work
[7] = tested on: rats; conditions: injection in the brain ventricle in rats; fully reversible by naloxone; cited from earlier work

In the case of CC(=O)O.CC(=O)O.CC(C)C[C@@H](NC(=O)[C@H](Cc1ccccc1)NC(=O)CNC(=O)[C@@H](C)NC(=O)[C@H](Cc1ccc(O)cc1)NC(=O)[C@@H](N)CCCNC(=N)N)C(N)=O [H-Arg-Tyr-D-Ala-Gly-Phe-D-Leu-NH2, L-Arginyl-L-Tyrosyl-D-Alanyl-Glycyl-L-Phenylalanyl-D-Leucyl Amide Diacetate] (H-RY[dA]GF[dL]-NH2), the “No. Showing Analgesic/No. Tested” value ([1]; 1.0 mg/kg. i.v.) was 2/6, the “No. Showing Analgesic/No. Tested” value ([1]; 2.5 mg/kg. i.v.) was 2/6 and the “No. Showing Analgesic/No. Tested” value ([1]; 5 mg/kg. i.v.) was 6/6.
In the case of Tyr-D-Ala-Gly-Phe-D-Leu, the activity [2] is listed as “activity”.
In the case of “H-Tyr-Gly-Gly-Phe-Met-OH [methionine-enkephalin]”, the peripheral activity [3] is given as “inactive peripherally”, the “inhibition of stereospecific receptor binding of 3H-naloxone” value [4] is given as “inhibit the stereospecific receptor binding” and the “ability to block electrically evoked contractions” value (shortened to “ability”) [5] is given as “block electrically evoked contractions”. For the same molecule, the “ability” value [6] was “block electrically evoked contractions” and the analgesia [7] was “induce a profound analgesia”.
For “H-Tyr-Gly-Gly-Phe-Leu-OH [leucine-enkephalin]”, the peripheral activity [3] is given as “inactive peripherally”, the “inhibition of stereospecific receptor binding of 3H-naloxone” value [4] is given as “inhibit the stereospecific receptor binding” and the “ability” value [5] is given as “block electrically evoked contractions”. The “ability” value [6] was “block electrically evoked contractions” and the analgesia [7] was “induce a profound analgesia”.
